# Assay results published in patent US9920096B2, “Bradykinin receptor modulators and use thereof” (Sepia Pesquisa e Desenvolvimento, priority 2013, dated 2018).
# Experiments:
# [1] = system: Human umbilical vein endothelial cells (HUVEC); test: In vitro angiogenesis assay on Matrigel (HUVEC); type: cell-based
# Procedure: The angiogenesis assay was performed according to the protocol described in Paschoalin T, et al (2007).
# Human umbilical vein endothelial cells (HUVEC) were maintained in complete RPMI 1640 medium, pH 7.2, supplemented with 10 mM N-2-hydroxyethylpiperazine-N′-2-ethanesulphonic acid (HEPES), 24 mM sodium bicarbonate, 10% heat-inactivated fetal calf serum (FCS) from Gibco (Minneapolis, Minn., USA) and 40 μg/mL gentamicin sulfate (Hipolabor Farmacéutica, Sabará, MG, Brazil).
# In vitro angiogenesis assay on Matrigel was performed as described previously (Paschoalin et al, 2007). Briefly, BD Matrigel Matrix (B&D Biosciences, Bedford, Mass., USA) was thawed on ice, distributed in 96-well plates (50 μL per well) and allowed to polymerize for 1 h at 37° C. HUVECs (15×10^3 cells/well) were suspended in 100 μL of RPMI medium supplemented with 2% of FCS and added to each well in the presence of peptides with possible angiogenic activity. Angiogenic stimulators and inhibitors can be incubated with the cells before adding on the Matrigel if necessary. The plates were incubated at 37° C. for 18 h and then images were captured at 8× magnification with a Sony Cyber-shot camera coupled to a light inverted microscope. The number of pro-angiogenic structures (closed rings arising from dendritic extensions of endothelial cells) was counted from 4 different wells, and the average value was determined for each sample.
# When stimulated by angiogenic factors, like BK, HUVEC cells undergo the development of pro-angiogenic structures and it allows studying angiogenic or anti-angiogenic molecules. The number of pro-angiogenic structures is counted and compared to a control and to BK. Generally, peptides of the invention derived from VEGF-A were named PepA, peptides from VEGF-C were named PepC, peptides from VEGF-D were named PepD and peptides from Placental Growth Factor were named PepPl.
# * p<0.05, Student's “t” test, when comparing the mean number of pro-angiogenic structures from […] different wells of HUVEC cultures to the control.
# HUVEC cells = test: Intracellular calcium measurement in HUVEC cells (Fluo-3 fluorescence); type: cell-based, Human; settings: for Bradykinin receptor activity indicated by calcium entry data: FIG. 5A-E, with and without B1/B2 antagonists
# Procedure: The intracellular calcium measurement was performed according to the method described in Bagnaresi P et al, 2012 and Lungato L, et al., 2012.
# Human umbilical vein endothelial cells were cultured in RPMI 1640 (GIBCO) containing 10% heat-inactivated fetal bovine serum (FBS), 24 mM sodium bicarbonate, […] gentamicin, 10 mM HEPES, pH 7.4 at 37° C. in a 5% CO2 humidified atmosphere. 5×10^4 cells were plated on 60 mm dishes (Costar 3260), and incubated in culture medium containing 5 μM Fluo-3 AM (Invitrogen Corporation, CA) for 40 min at 37° C. in a buffer containing the channel blocker Probenecid (40 μM), followed by 3 washes with culture medium to discard remaining extracellular probe. The cells were then placed into a culture chamber at 37° C. on the stage of a fluorescence microscope (Zeiss LSM 510 META) with excitation at 488 nm and emission at 505-530 nm. After calcium probe incubation, assays were performed with 1 uM bradykinin (BK), 10 uM PepD 2-10.
# Fluorescence data were normalized as F/Fmax, where Fmax represents maximal intracellular fluorescence obtained with Ca2+ released from ER with addition of THG, a Ca2+ATPase inhibitor (Bagnaresi et al. 2012). THG blocks calcium pumps that recover cytosolic calcium from the cytoplasm. Under the action of THG the cytosolic calcium reaches its maximal concentration.
# The software-based analysis allowed fluorescence imaging in the whole field or in a selected cell as a function of time (Image J 1.47h, NIH, USA). This was accomplished by defining areas of interest (e.g., an entire cell) on a given image frame and directing the software to construct a graphical representation of intensity over time (GraphPad Software 6 Prisma). Individual traces for typical 15 cells responses represent the intracellular calcium fluorescence changes in the analyzed cell population (Lungato et al. 2012).
# [2] = FIG. 2 and 3, peptide at 10 μM, compared to BK 1 μM and control without peptide
# [3] = FIG. 4A/4B, 1 μM and 10 μM, 24 h after initial stimulus
# [4] = FIG. 5E, peptide 10 μM, in the presence of B1 receptor antagonist DesArg9-Leu8-BK
sequence,measurement,setting,value
"KPSCVPLM [PepA 2-9, derived from VEGF-A]",Induction of angiogenesis in HUVEC angiogenesis assay,[1]; [2],able to induce angiogenesis
"KPPCVSVY [PepC 2-9, derived from VEGF-C]",Induction of angiogenesis in HUVEC angiogenesis assay,[1]; [3],able to induce angiogenesis
"FKPPCVNVF [PepD 1-9, derived from VEGF-D]",Induction of angiogenesis in HUVEC angiogenesis assay,[1]; [2],able to induce angiogenesis
"FKPPCVSVYR [PepC 1-10, derived from VEGF-C]",Induction of angiogenesis in HUVEC angiogenesis assay,"[1]; FIG. 4C, 0.1, 1.0 and 10 μM, 24 h after initial stimulus",able to induce angiogenesis
"FKPSCVPLM [PepA 1-9, derived from VEGF-A]",Induction of angiogenesis in HUVEC angiogenesis assay,[1]; [2],able to induce angiogenesis
"KPPCVNVFR [PepD 2-10, derived from VEGF-D]",Effect on HUVEC angiogenesis assay (number of pro-angiogenic structures),"[1]; FIG. 1, tested at 1 μM, 10 μM and 50 μM, effect at 1 and 10 μM, compared to control",pro-angiogenic effect
same,Induction of angiogenesis in HUVEC angiogenesis assay,[1]; [2],able to induce angiogenesis
same,Bradykinin receptor activity indicated by calcium entry data,HUVEC cells; peptide 10 μM,B2 agonist
same,Bradykinin receptor activity indicated by calcium entry data,"HUVEC cells; peptide 10 μM, listed as PepD2-10",B1 bradykinin receptor activation
same,Cytoplasmic calcium in HUVEC (Fluo-3 fluorescence),"HUVEC cells; FIG. 5B, peptide 10 μM",induces an increase of cytoplasmatic calcium
same,Calcium entry induced by the peptide after previous addition of B2 receptor antagonist HOE140,"HUVEC cells; FIG. 5C, HOE 140 10 μM for 10 min before peptide 10 μM",does not block calcium entry but clearly shows a disruption in the pattern of calcium increase
same,Calcium entry induced by the peptide after previous addition of B1 receptor antagonist DesArg9-Leu8-BK,"HUVEC cells; FIG. 5D, DesArg9-Leu8-BK 10 μM for 10 min before peptide 10 μM",completely blocks the effect of PepD 2-10
"FKPPCVNVFR [PepD 1-10, derived from VEGF-D]",Induction of angiogenesis in HUVEC angiogenesis assay,[1]; [2],able to induce angiogenesis
"FSPSCVSLLR [PepPl 1-10, derived from Placental Growth Factor]",Cell fluorescence due to calcium entry in the cytoplasm of HUVEC,HUVEC cells; [4],induces an increase in cell fluorescence
same,Duration of transient fluorescence increase (cytoplasmic calcium increase),HUVEC cells; [4],around 5 minutes
"KPPCVSVYR [PepC 2-10, derived from VEGF-C]",Induction of angiogenesis in HUVEC angiogenesis assay,[1]; [3],able to induce angiogenesis
